Measurements published in a melting point compilation (Tetko et al.; mined from patent text by program, amines drawn as free bases though some values may be those of a salt).

Compound | melting point
COC(=O)Cc1ccc(OCCNC(=O)C2Cc3ccccc3N2S(=O)(=O)c2ccc(-c3cc(F)ccc3Cl)cc2)cc1 (configuration not stated) | 52 to 56 °C
O=C1C(=Cn2ccnc2)CSc2ccccc21 | 139 to 140 °C
O=C(OCc1ccccc1)n1ccc2c(O)cccc21 | 118 to 120 °C
CC(C)(O)C#Cc1ccc(-c2ccc(F)cc2)cc1 | 118 °C
CCN(CC)CCOc1ccc(C(=O)c2c(-c3ccccc3)oc3ccccc23)cc1 | 125 to 127 °C
NC(=O)N(c1ccc(-c2c(CCO)sc3ncnc(N)c23)cc1)c1cccc(C(F)(F)F)c1 | 155 to 158 °C
COc1cccc(C(C[N+](=O)[O-])C2CCCCC2=O)c1 (racemic) | 125 to 126 °C
Cn1c(Br)c(Br)c(C#N)c1Br | 151 to 152 °C
CCOC(=O)c1cc(OCc2ccccc2)ccc1OCC(F)(F)F | 145 to 146 °C
COc1cc(C)ccc1OCCCN1CCC(C(O)(c2ccc(F)cc2)c2ccc(F)cc2)CC1 | 121 to 122 °C
Cn1ccc(Nc2ccc([N+](=O)[O-])cc2[N+](=O)[O-])n1 | 150 °C
COC(=O)CC=CC=Cc1ccccc1 | 71 °C
O=C(O)c1cccnn1 | 156 to 158 °C
COc1cc2c(cc1OC)C(=O)NN(CCCO)C2 | 178 °C
CCn1cc(C(=O)O)c(=O)c2cc(Cl)c(N3CCN(Cc4ccccc4)CC3)cc21 | 228 °C
CCOC(=O)OC(C)OC(=O)c1cc(-c2ccc(F)cc2F)ccc1O (configuration not stated) | 76 to 78 °C
CCCCCCCc1cc2cn(C(CC)CC)c(=O)nc2o1 | 128 to 130 °C
COC(=O)COC(=O)Cc1cc(Oc2ccc(C(F)(F)F)cc2Cl)ccc1[N+](=O)[O-] | 79.2 to 80.1 °C
O=[N+]([O-])C(=Cc1ccc(F)cc1)c1ccc(F)cc1 | 107 to 109 °C
O=[N+]([O-])c1cc(Cl)c(C=CN2CCN(c3nsc4ccccc34)CC2)cc1Cl | 194 to 195 °C
O=C(NCCCN1CCC(c2ccccn2)CC1)N1C(=O)OCC1c1ccc(F)c(F)c1 (configuration not stated) | 142 to 144 °C
Cc1sc(S(C)(=O)=O)nc1-c1ccccc1 | 114 to 115 °C
Cc1nc(N)c2nc(C)n(CCOCCNC(=O)C(C)C)c2c1C | 180 to 182 °C
CCCCc1ncc(/C=C2\C(=O)NC(=O)N2c2ccccc2)n1Cc1ccc(C(=O)O)cc1 | 286 to 290 °C
Cc1cccc(NC(=O)NCC(=O)N(CC(=O)OC(C)(C)C)c2ccccc2F)c1 | 148 °C
Fc1ccc2[nH]cc(CC3CCNCC3)c2c1 | 155 to 157 °C

Compound | melting point
Nc1cc(OCCOCP(=O)(O)O)nc(N)n1 | 279 °C
CCOP(=O)(OCC)C(O)=C1CCc2cc(CC3CCCC3)c(Cl)cc21 | 126 °C
O=S1(=O)c2cccc3cccc(c23)N1CCN1CCC(CC2=Cc3ccccc3C2)CC1 | 176 °C
Cc1c(Br)sc2cc(C(=O)CBr)ccc12 | 126 to 128 °C
CS(=O)(=O)c1ccc(-c2nn(Cc3ccc(Cl)cc3Cl)c(=O)cc2-c2ccc(Cl)cc2)cc1 | 233 to 234 °C
CC(C)(C)OC(=O)N1CCC2(CC1)C(=O)N(CC(=O)O)CN2c1ccccc1 | 200 to 201 °C
CCOC(=O)N1CCC(O)(c2cc(F)c(Br)cc2F)CC1 | 133 to 136 °C
O=C(O)c1ccc2c(c1)S(=O)(=O)c1ccccc1C(=O)N2 | 337 to 340 °C
CC(=O)NC[C@H]1CN(c2ccc(N3CCC(F)(COS(C)(=O)=O)CC3)c(F)c2)C(=O)O1 | 182 to 183 °C
C[C@H]1[C@H](N)CN1c1c(F)c(N)c2c(=O)c(C(=O)O)cn(C3CC3)c2c1F (relative stereo) | 206 to 210 °C
CCCCCCCCc1ccc(OC2=CC(=O)OC2O)cc1 (configuration not stated) | 59 to 61 °C
CCn1c2ccccc2n2c(=O)c(C(=O)NC)cnc12 | 178 to 180 °C
COc1ccc(-c2c(NCCc3ccc(C(C)(C)C)cc3)c(=O)c2=O)cc1 | 258 to 260 °C
Cc1c(-c2ccncc2)[nH]c(-c2ccncc2)c1C(=O)CC(C)C | 199 to 201 °C
CC(=O)c1c(N2CCOCC2)nn2ccccc12 | 164 °C
CC(=O)Oc1ccc(C(=O)O)cc1I | 173 to 174 °C
C[C@H](NC(=O)CCn1cc(C2=C(c3cn(C)c4ccccc34)C(=O)NC2=O)c2ccccc21)C(=O)NCC(=O)N[C@@H](CCCCN)C(N)=O | 158 to 160 °C
CC(=O)N1C(=O)c2ccccc2N(C(C)=O)C1C(Cl)(Cl)Cl (configuration not stated) | 152 to 154 °C
CCCCNC(=O)NCc1ccc(Nc2n[nH]c3ncnc(Nc4cccc(Cl)c4)c23)cc1 | 217 to 218 °C
CC(=CC(CNC(=O)c1cccnc1)=NO)C(C)[N+](=O)[O-] (configuration not stated) | 137 to 139 °C
N#CC1=C(C2CCC2)Nc2n[nH]cc2C1c1ccccc1Cl (configuration not stated) | 188 °C
CCOc1c(C)c(C)c(OC)c(CN(C)CCOc2cc(C)ccc2C(C)C)c1C | 115 to 120 °C
CCNC(=O)c1cc(NS(=O)(=O)c2ccc(OC)cc2)ccc1Oc1cncc(Cl)c1 | 146 to 147 °C
Brc1ccc(Cc2nccc(-c3ccc(Br)cc3)n2)cc1 | 93 to 94 °C
Cc1ccc(-c2coc3c(C)c(C)cc(C)c23)cc1 | 112 to 113 °C
Nc1cc(N2C(=O)CN(CCCF)C2=O)c(F)cc1Cl | 89 to 91 °C

Compound | melting point
CC(C)(C)OC(=O)NC(Cc1c[nH]c2ccccc12)C(=O)OCCl (configuration not stated) | 155 to 157 °C
O=C(Cc1ccccc1Nc1c(Cl)cccc1Cl)NO | 164 to 165 °C
O=[N+]([O-])c1ccccc1S(=O)(=O)c1ccc(Cl)cc1 | 136 to 138 °C
CC(C)(C)OC(=O)NCCNC(=O)c1ncsc1-c1cccc(I)c1 | 111 to 112 °C
Nc1ncc(-c2ccccc2)nc1Sc1ccc(F)cc1 | 161 to 164 °C
Clc1cc(Cl)c2c(c1)COCO2 | 111 to 112 °C
O=C(C=Cc1c(Cl)cccc1Cl)N1CCc2c([nH]c3ccccc23)C1c1ccc2c(c1)OCO2 (configuration not stated) | 118 to 120 °C
CCCCS(=O)c1ccc(-n2[nH]c3ccccc3c2=O)cc1 (configuration not stated) | 168 to 169 °C
OCc1ccc(C2=C(C3CCCC3)CCC2=NO)cc1 | 187 to 190 °C
C[C@@]1(F)[C@H](OC(=O)c2ccccc2)[C@@H](COC(=O)c2ccccc2)O[C@H]1n1cnc2c(Cl)nc(N)nc21 | 160 to 162 °C
C=CCn1cc(Cc2ccc(C(=O)O)cc2OC)c2cc(CC(=O)NCCCC)ccc21 | 78 to 80 °C
c1ccc2c(c1)c(-c1cc3nccnc3[nH]1)cn2CCCN1CCCCC1 | 240 °C
OCC/C(CCCCCCCCS)=C(\CCO)CCCCCCCCS | 67.4 to 68.2 °C
CCOC(=O)c1sc2cc(OCc3ccccc3)ccc2c1Sc1ccccc1 | 96 to 97 °C
COC(=O)Cc1c(O)ncnc1O | > 200 °C
C=C1C2CCC(=O)C23CCC(C3)C1(C)C (configuration not stated) | 77 to 79 °C
Cc1ccc(C(=O)NN2CCOCC2)c(Nc2ccc3[nH]ncc3c2)n1 | 257 to 260 °C
C=C(C)C(=O)OCCC#Cc1ccc(-c2ccc(OC(=O)C(=C)C)cc2)cc1 | 80 °C
CC1CCN(CCCC(=O)c2ccc3oc4ccc(C(=O)CCCN5CCC(C)CC5)cc4c3c2)CC1 | 72 to 73 °C
O=C(O)c1ccc(OC(=O)c2ccc(O)c(C34CC5CC(CC(C5)C3)C4)c2)nc1 | 112 to 113 °C
COc1ccnc(CSc2nc3ccc(F)cc3[nH]2)c1C | 128 °C
COC(COc1ccc(C(=O)NCC(NC(=O)OCc2ccccc2)C(=O)OC(C)(C)C)cc1)OC (configuration not stated) | 115 °C
COc1cc(C(=O)CCCN2CCC(OC(=O)c3cc(Cl)c(N)c4c3OCC4)C(OC)C2)cc(OC)c1OC (configuration not stated) | 132 °C
CN(C)c1ccc(/C=C/C(=O)CC(=O)/C=C/c2ccc3cc[nH]c3c2)cc1 | 112 to 119 °C
COc1cc(NC(=O)Nc2ccc(Oc3ccncc3)cc2)cc(C(F)(F)F)c1 | 162 to 164 °C
Cc1cc(=O)n(-c2cc(C(=O)O)c(Cl)cc2F)c(=O)n1C | 236 to 239 °C

Compound | melting point
O=C1OC2(CCN(CCC(O)c3ccccc3)CC2)c2ccccc21 (configuration not stated) | 144 to 146 °C
OCCn1cc(-c2cc3nccnc3[nH]2)c2ccccc21 | 272 to 273 °C
CC(=O)Nc1nc2c(sc(=O)n2C2OC(COC(C)=O)C(OC(C)=O)C2OC(C)=O)c(=O)[nH]1 (configuration not stated) | 247 to 248 °C
CCCCc1ncc(C(=O)OCC)c(=O)n1Cc1ccc(-c2ccccc2-c2nnn[nH]2)cc1 | 168 to 173 °C
CCOC(=O)c1cnc2nn(C)cc2c1OCCC(C)C | 100 to 102 °C
N#Cc1ccc(-c2ccc(C(=O)O)cn2)cc1 | > 260 °C
COc1ccc(C=CC2=NNC(C)Cc3cc4c(cc32)OCO4)c(OC)c1 (configuration not stated) | 176 to 178 °C
O=[N+]([O-])c1cc(-c2nc3ccccc3s2)ccc1O | 214 to 215 °C
CCOC(=O)C(=O)Nc1ccc(C#N)cc1[N+](=O)[O-] | 152 °C
Cc1cccc(-c2nc(N)ncc2-c2ccc(=O)n(C)n2)c1 | 214 °C
O=S1(=O)c2ccccc2N(c2ccccn2)c2ccccc21 | 184 to 188 °C
O=C(c1cccnc1Cl)N(O)C1CCCCC1 | 151 to 153 °C
CC(C)Nc1cccnc1N1CCN(C(=O)c2ccc(C(=O)N(CCO)CCO)cn2)CC1 | 130 to 132 °C
O=C(O)c1ccc2ccccc2c1OCC(F)(F)F | 172 °C
Cn1nnc(-c2ccc(-c3nnn(C)n3)nc2)n1 | 225 to 226 °C
O=C(CCN1CCOCC1)NCc1ccc2c(c1)-c1[nH]nc(-c3ccsc3)c1C2 | 228 to 230 °C
Nc1nc2c([N+](=O)[O-])cc(OC(F)(F)F)cc2s1 | 260 °C
CC(C)=CCCC(C)=CCCC(C)=CCCC1(C)CCc2c(C)c(O)c(C)c(C)c2O1 (configuration not stated) | 25 to 28 °C
O=c1scc(-c2ccc(CCO)cc2)s1 | 92 to 94 °C
Cc1c(C)c2c(c(C)c1N)CC(C)(CN1CCC(c3ccccc3)CC1)O2 (configuration not stated) | 112 to 113 °C
CCOc1ccc2nc(CCl)cn2c1 | 95 to 96 °C
CN(C)c1ccc(C2(CN)CCCC2)cc1 | 87 to 89 °C
O=C(O)c1cn(CC2CCC2)c2cc(Cl)ccc12 | 191 to 193 °C
Clc1nc2ncnn2c(NC2CCCC2)c1-c1ccsc1 | 78 °C
